ChEMBL document CHEMBL4507281, “Data for DCP probe BI-4394” (2021)

Assays:
[1] = system: Epidermal growth factor receptor (Homo sapiens), P00533 [UNDEFINED MUTATION]; conditions: Compound concentration 100.0 nM
[2] = biological target: Activin receptor type-2B (Homo sapiens) (UniProt Q13705); conditions: Compound concentration 100.0 nM
[3] = biological target: Serine/threonine-protein kinase ULK3 (Homo sapiens) (UniProt Q6PHR2); conditions: Compound concentration 100.0 nM
[4] = biological target: Activin receptor type-1 (Homo sapiens) (UniProt Q04771); conditions: Compound concentration 100.0 nM
Activin receptor type-1 (Homo sapiens), sequence (Q04771 whole entry): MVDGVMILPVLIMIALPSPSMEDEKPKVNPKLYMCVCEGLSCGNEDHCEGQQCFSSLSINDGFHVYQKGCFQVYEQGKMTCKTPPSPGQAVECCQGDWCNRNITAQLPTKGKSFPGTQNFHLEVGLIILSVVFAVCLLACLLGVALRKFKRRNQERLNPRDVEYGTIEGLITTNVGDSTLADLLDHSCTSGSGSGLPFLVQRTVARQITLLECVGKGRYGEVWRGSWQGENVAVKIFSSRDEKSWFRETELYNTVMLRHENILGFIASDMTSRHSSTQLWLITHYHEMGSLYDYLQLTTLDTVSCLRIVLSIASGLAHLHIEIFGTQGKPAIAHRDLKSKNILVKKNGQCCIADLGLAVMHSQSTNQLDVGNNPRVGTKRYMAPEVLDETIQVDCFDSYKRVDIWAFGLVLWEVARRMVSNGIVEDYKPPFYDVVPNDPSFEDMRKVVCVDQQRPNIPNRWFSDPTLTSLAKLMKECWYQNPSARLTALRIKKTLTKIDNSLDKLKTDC

[5] = biological target: Protein kinase C eta type (Homo sapiens) (UniProt P24723); conditions: Compound concentration 100.0 nM
[6] = biological target: Rho-associated protein kinase 2 (Homo sapiens) (UniProt O75116); conditions: Compound concentration 100.0 nM
[7] = biological target: Platelet-derived growth factor receptor alpha (Homo sapiens) (UniProt P16234); conditions: Compound concentration 100.0 nM
[8] = biological target: Tyrosine-protein kinase ABL2 (Homo sapiens) (UniProt P42684); conditions: Compound concentration 100.0 nM
[9] = biological target: Calcium/calmodulin-dependent protein kinase type IV (Homo sapiens) (UniProt Q16566); conditions: Compound concentration 100.0 nM
[10] = biological target: Glycogen synthase kinase-3 alpha (Homo sapiens) (UniProt P49840); conditions: Compound concentration 100.0 nM
[11] = biological target: Dual specificity protein kinase CLK3 (Homo sapiens) (UniProt P49761); conditions: Compound concentration 100.0 nM
[12] = biological target: Receptor tyrosine-protein kinase erbB-3 (Homo sapiens) (UniProt P21860); conditions: Compound concentration 100.0 nM
[13] = biological target: Muscle, skeletal receptor tyrosine-protein kinase (Homo sapiens) (UniProt O15146); conditions: Compound concentration 100.0 nM
[14] = biological target: Receptor tyrosine-protein kinase erbB-2 (Homo sapiens) (UniProt P04626); conditions: Compound concentration 100.0 nM
[15] = biological target: Casein kinase I isoform delta (Homo sapiens) (UniProt P48730); conditions: Compound concentration 100.0 nM
Casein kinase I isoform delta (Homo sapiens), sequence (P48730 whole entry, looked up, canonical isoform): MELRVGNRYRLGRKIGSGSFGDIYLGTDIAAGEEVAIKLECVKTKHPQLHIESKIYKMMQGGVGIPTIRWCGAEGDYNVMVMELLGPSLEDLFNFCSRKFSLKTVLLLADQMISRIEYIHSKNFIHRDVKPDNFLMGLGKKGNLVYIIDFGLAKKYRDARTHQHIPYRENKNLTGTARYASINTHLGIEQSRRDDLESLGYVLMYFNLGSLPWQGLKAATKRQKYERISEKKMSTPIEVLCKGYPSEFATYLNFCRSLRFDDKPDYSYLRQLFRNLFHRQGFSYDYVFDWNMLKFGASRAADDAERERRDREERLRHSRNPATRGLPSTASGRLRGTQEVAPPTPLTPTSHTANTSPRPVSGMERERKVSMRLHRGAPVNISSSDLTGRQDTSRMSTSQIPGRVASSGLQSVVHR

[16] = biological target: Serine/threonine-protein kinase Nek10 (Homo sapiens) (UniProt Q6ZWH5); conditions: Compound concentration 100.0 nM
[17] = biological target: Serine/threonine-protein kinase ULK1 (Homo sapiens) (UniProt O75385); conditions: Compound concentration 100.0 nM
[18] = biological target: Mu-type opioid receptor (Homo sapiens) (UniProt P35372); conditions: Compound concentration 10.0 uM
[19] = biological target: Serine/threonine-protein kinase PAK 1 (Homo sapiens) (UniProt Q13153); conditions: Compound concentration 100.0 nM
Serine/threonine-protein kinase PAK 1 (Homo sapiens), sequence (Q13153 whole entry): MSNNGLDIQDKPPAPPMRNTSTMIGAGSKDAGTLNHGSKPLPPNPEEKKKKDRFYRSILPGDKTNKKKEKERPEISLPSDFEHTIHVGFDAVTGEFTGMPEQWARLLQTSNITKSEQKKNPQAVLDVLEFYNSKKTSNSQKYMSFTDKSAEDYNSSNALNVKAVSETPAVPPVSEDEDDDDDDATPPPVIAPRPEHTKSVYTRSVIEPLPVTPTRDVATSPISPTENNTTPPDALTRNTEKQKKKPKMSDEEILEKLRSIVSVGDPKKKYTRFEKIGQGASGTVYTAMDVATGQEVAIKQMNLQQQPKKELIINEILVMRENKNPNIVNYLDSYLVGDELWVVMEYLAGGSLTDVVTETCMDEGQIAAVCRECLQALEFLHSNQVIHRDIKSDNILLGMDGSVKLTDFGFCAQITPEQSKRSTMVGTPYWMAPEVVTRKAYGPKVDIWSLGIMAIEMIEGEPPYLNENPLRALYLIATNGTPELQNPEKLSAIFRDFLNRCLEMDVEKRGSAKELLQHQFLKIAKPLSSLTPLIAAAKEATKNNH

[20] = biological target: Kappa-type opioid receptor (Homo sapiens) (UniProt P41145); conditions: Compound concentration 10.0 uM
Kappa-type opioid receptor (Homo sapiens), sequence (P41145 whole entry): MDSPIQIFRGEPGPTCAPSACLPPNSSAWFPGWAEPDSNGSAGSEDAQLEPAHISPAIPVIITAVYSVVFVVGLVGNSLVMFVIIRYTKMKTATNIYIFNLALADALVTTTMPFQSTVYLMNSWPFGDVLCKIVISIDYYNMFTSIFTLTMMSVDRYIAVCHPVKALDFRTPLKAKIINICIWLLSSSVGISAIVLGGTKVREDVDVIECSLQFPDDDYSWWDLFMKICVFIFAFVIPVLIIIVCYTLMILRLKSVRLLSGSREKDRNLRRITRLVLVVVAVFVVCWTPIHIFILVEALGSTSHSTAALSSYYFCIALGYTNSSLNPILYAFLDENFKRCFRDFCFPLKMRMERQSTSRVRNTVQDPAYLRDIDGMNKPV

[21] = biological target: Calcium/calmodulin-dependent protein kinase type II subunit delta (Homo sapiens) (UniProt Q13557); conditions: Compound concentration 100.0 nM
[22] = biological target: Serine/threonine-protein kinase WNK2 (Homo sapiens) (UniProt Q9Y3S1); conditions: Compound concentration 100.0 nM
[23] = biological target: Casein kinase I isoform gamma-3 (Homo sapiens) (UniProt Q9Y6M4); conditions: Compound concentration 100.0 nM
Casein kinase I isoform gamma-3 (Homo sapiens), sequence (Q9Y6M4 whole entry, looked up, canonical isoform): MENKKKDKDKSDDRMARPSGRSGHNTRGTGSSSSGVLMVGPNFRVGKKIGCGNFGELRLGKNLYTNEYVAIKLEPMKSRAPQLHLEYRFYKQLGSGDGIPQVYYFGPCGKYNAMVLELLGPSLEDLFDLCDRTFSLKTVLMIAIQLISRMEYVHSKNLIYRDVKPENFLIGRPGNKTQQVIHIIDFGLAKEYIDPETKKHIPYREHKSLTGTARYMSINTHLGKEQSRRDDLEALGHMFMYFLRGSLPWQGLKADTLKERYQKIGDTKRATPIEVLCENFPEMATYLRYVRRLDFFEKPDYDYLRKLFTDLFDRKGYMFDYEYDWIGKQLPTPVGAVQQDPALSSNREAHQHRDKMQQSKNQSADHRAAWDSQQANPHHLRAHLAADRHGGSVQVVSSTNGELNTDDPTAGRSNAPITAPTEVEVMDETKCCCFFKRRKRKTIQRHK

[24] = biological target: BDNF/NT-3 growth factors receptor (Homo sapiens) (UniProt Q16620); conditions: Compound concentration 100.0 nM
BDNF/NT-3 growth factors receptor (Homo sapiens), sequence (Q16620 32-822 limits assumed): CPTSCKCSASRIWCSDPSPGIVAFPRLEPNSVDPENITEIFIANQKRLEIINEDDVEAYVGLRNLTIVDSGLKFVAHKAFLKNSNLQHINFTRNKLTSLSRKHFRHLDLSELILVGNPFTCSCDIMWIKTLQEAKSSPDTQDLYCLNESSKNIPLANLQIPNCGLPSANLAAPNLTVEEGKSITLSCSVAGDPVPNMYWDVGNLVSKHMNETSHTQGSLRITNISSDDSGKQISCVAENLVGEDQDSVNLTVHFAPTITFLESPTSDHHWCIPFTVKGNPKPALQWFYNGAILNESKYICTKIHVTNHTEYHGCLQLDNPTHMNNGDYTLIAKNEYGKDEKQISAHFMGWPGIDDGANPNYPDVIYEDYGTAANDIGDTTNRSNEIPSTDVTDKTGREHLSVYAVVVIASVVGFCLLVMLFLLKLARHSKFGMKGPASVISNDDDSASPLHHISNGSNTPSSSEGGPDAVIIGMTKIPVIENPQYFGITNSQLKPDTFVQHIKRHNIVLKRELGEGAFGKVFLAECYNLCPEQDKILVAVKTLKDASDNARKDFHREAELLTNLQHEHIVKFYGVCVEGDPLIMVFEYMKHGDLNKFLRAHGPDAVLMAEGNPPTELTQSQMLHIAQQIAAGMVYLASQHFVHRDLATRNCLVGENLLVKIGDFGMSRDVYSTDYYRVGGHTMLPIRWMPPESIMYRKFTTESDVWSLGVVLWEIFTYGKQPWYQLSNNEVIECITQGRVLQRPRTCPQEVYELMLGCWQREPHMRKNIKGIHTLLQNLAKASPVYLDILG

[25] = biological target: Serine/threonine-protein kinase PAK 3 (Homo sapiens) (UniProt O75914); conditions: Compound concentration 100.0 nM
[26] = biological target: T1, Activin receptor type-1B (Homo sapiens) (UniProt P36896); conditions: Compound concentration 100.0 nM
T1 sequence (whole entry): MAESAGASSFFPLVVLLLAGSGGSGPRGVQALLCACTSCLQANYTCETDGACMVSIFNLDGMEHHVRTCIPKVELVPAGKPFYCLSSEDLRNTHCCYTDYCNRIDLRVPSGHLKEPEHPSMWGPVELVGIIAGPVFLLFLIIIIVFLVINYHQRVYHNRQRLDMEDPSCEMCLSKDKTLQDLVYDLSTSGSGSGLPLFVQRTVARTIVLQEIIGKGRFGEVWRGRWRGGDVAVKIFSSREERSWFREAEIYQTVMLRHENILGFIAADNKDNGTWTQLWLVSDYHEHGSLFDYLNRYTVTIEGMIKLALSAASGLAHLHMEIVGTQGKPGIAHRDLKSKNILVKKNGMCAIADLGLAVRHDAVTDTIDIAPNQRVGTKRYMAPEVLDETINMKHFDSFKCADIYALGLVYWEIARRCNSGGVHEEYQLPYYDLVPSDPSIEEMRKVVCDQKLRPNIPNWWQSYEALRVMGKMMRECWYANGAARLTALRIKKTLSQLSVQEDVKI

[27] = biological target: MAP kinase-interacting serine/threonine-protein kinase 2 (Homo sapiens) (UniProt Q9HBH9); conditions: Compound concentration 100.0 nM
[28] = biological target: Tyrosine-protein kinase Fyn (Homo sapiens) (UniProt P06241); conditions: Compound concentration 100.0 nM
Tyrosine-protein kinase Fyn (Homo sapiens), sequence (P06241 2-537 limits assumed): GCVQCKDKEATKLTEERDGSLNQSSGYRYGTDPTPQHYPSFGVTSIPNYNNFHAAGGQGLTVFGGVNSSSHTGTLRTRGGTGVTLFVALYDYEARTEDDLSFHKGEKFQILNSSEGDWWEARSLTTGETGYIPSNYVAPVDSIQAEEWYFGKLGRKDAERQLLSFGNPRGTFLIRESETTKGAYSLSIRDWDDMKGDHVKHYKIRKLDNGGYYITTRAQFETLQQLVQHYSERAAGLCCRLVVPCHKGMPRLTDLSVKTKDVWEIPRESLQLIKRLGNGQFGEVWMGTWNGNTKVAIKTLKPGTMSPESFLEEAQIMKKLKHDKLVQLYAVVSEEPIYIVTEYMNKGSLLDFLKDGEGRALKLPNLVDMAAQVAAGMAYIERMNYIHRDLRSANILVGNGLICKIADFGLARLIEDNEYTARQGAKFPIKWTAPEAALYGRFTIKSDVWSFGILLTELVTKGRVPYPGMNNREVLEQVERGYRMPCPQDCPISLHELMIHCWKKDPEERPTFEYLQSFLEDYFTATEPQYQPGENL

[29] = system: Serine/threonine-protein kinase B-raf (Homo sapiens), P15056 [V600E]; conditions: Compound concentration 100.0 nM
[30] = biological target: Misshapen-like kinase 1 (Homo sapiens) (UniProt Q8N4C8); conditions: Compound concentration 100.0 nM
[31] = system: Leucine-rich repeat serine/threonine-protein kinase 2 (Homo sapiens), Q5S007 [G2019S]; conditions: Compound concentration 100.0 nM
[32] = biological target: RAC-gamma serine/threonine-protein kinase (Homo sapiens) (UniProt Q9Y243); conditions: Compound concentration 100.0 nM
RAC-gamma serine/threonine-protein kinase (Homo sapiens), sequence (Q9Y243 whole entry): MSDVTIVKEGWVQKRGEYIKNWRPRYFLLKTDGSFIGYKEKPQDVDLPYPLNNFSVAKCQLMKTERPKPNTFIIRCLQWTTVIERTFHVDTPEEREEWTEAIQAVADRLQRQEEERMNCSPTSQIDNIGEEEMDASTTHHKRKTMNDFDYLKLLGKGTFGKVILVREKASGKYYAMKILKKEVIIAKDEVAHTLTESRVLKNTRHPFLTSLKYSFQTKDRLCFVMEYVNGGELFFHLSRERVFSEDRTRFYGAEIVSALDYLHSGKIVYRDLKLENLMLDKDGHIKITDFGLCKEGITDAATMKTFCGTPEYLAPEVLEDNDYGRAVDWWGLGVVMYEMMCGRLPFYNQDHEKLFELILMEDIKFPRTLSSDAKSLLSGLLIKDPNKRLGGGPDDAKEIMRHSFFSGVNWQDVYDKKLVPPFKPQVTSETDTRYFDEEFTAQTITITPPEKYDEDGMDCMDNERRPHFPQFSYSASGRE

[33] = biological target: Atypical kinase COQ8A, mitochondrial (Homo sapiens) (UniProt Q8NI60); conditions: Compound concentration 100.0 nM
[34] = biological target: Serine/threonine-protein kinase PLK1 (Homo sapiens) (UniProt P53350); conditions: Compound concentration 100.0 nM
[35] = biological target: Insulin receptor (Homo sapiens) (UniProt P06213); conditions: Compound concentration 100.0 nM
[36] = biological target: Myotonin-protein kinase (Homo sapiens) (UniProt Q09013); conditions: Compound concentration 100.0 nM
[37] = biological target: Wee1-like protein kinase (Homo sapiens) (UniProt P30291); conditions: Compound concentration 100.0 nM
Wee1-like protein kinase (Homo sapiens), sequence (P30291 whole entry, looked up): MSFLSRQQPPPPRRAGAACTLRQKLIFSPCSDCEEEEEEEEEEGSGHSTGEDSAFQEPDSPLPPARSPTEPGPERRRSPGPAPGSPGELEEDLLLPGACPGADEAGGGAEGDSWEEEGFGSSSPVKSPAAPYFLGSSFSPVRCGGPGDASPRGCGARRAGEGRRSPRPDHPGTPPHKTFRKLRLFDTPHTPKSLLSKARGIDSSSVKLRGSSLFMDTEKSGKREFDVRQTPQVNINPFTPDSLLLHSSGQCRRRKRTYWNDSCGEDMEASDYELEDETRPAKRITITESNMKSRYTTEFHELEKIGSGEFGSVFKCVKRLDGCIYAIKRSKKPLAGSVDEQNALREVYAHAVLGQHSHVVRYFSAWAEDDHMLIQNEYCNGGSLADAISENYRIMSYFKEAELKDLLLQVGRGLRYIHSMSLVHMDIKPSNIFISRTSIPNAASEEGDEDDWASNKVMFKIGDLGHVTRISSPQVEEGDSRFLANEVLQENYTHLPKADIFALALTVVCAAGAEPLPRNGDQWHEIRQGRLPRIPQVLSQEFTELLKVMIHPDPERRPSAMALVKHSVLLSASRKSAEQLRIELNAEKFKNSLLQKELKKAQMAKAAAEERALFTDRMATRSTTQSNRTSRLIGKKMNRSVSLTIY

[38] = system: Tyrosine-protein kinase ABL1 (Homo sapiens), P00519 [T315I]; conditions: Compound concentration 100.0 nM
[39] = biological target: Serine/threonine-protein kinase WNK1 (Homo sapiens) (UniProt Q9H4A3); conditions: Compound concentration 100.0 nM

CCOC(=O)c1cc2cc(-c3cc(C(=O)NCc4ccc(C(=O)O)cc4)nn3C)ccc2[nH]1 [BI 4394]
inactive: residual activity [1] 100% | residual activity [2] 91% | residual activity [3] 100% | residual activity [4] 84% | residual activity [5] 87% | residual activity [6] 85% | residual activity [7] 86% | residual activity [8] 100% | residual activity [9] 95% | residual activity [10] 100% | residual activity [11] 83% | residual activity [12] 81% | residual activity [13] 64% | residual activity [14] 99% | residual activity [15] 81% | residual activity [16] 90% | residual activity [17] 87% | inhibition [18] 0.37% | residual activity [19] 92% | inhibition [20] 27.2% | residual activity [21] 91% | residual activity [22] 85% | residual activity [23] 100% | residual activity [24] 91% | residual activity [25] 77% | residual activity [26] 86% | residual activity [27] 92% | residual activity [28] 100% | residual activity [29] 100% | residual activity [30] 94% | residual activity [31] 83% | residual activity [32] 86% | residual activity [33] 100% | residual activity [34] 90% | residual activity [35] 81% | residual activity [36] 87% | residual activity [37] 90% | residual activity [38] 92% | residual activity [39] 93%

Cn1nc(C(=O)NCc2ccc(C(=O)O)cc2)cc1-c1ccc2[nH]ccc2c1 [BI 4395]
inactive: residual activity [1] 100% | residual activity [2] 100% | residual activity [3] 99% | residual activity [4] 99% | residual activity [5] 84% | residual activity [6] 82% | residual activity [7] 100% | residual activity [8] 93% | residual activity [9] 92% | residual activity [10] 61% | residual activity [11] 95% | residual activity [12] 77% | residual activity [13] 95% | residual activity [14] 92% | residual activity [15] 84% | residual activity [16] 58% | residual activity [17] 83% | inhibition [18] 2.9% | residual activity [19] 86% | inhibition [20] 16.8% | residual activity [21] 83% | residual activity [22] 70% | residual activity [23] 94% | residual activity [24] 92% | residual activity [25] 82% | residual activity [26] 83% | residual activity [27] 96% | residual activity [28] 98% | residual activity [29] 89% | residual activity [30] 95% | residual activity [31] 70% | residual activity [32] 88% | residual activity [33] 100% | residual activity [34] 95% | residual activity [35] 100% | residual activity [36] 76% | residual activity [37] 100% | residual activity [38] 71% | residual activity [39] 100%
